In patent US6855730B2, “3-methylidenyl-2-indolinone modulators of protein kinase” (Sugen, Inc., priority 1998, dated 2005):
pIC50: −log10 of the molar value. Like-named read-outs stand apart in the source and are kept apart here.

Experiments:
[1] = target: T1, human flk-1 (Homo sapiens, UniProt P35968); experiment: Biochemical FLK-1 assay (flk-1 autophosphorylation ELISA); conditions: read-out: bio FLK1 IC50 (μM) % if inhibition at 100
T1 construct: host or cells: Flk-1/NIH cells (NIH fibroblasts)
T1 sequence (P35968 20-1356): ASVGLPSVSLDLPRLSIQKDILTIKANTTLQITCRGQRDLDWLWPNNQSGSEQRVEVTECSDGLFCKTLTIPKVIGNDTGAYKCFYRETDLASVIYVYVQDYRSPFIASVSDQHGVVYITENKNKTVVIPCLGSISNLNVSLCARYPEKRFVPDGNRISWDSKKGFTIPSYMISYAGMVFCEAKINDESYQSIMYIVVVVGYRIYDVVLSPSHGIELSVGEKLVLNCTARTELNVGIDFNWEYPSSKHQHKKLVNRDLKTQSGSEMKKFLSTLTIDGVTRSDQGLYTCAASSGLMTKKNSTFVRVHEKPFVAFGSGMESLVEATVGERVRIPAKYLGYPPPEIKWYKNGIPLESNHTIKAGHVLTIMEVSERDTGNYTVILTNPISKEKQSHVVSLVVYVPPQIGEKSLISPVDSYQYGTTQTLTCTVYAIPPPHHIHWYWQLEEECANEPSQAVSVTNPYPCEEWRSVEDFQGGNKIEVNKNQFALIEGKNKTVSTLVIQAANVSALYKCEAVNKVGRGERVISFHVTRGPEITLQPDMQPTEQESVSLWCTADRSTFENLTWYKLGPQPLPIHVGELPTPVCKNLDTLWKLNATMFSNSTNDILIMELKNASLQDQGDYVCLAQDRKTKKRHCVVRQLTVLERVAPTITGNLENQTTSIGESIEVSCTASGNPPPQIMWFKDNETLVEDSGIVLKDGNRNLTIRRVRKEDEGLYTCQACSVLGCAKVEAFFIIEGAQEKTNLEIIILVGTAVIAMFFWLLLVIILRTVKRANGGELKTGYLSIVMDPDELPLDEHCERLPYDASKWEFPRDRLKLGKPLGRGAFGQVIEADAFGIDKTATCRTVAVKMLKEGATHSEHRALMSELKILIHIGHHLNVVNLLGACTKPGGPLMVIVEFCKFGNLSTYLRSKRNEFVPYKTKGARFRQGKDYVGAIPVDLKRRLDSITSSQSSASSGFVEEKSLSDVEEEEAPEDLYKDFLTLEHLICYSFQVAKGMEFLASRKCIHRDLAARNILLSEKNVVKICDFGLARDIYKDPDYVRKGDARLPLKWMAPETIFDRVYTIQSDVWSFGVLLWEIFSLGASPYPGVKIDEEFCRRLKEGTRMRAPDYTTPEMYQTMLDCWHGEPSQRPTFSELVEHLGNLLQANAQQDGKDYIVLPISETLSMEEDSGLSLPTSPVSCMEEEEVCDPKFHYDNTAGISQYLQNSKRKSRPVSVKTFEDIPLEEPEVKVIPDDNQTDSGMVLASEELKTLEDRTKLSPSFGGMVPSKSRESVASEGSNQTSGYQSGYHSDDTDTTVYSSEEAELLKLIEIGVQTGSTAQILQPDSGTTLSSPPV
Method: This assay evaluates flk-1 autophosphorylation activity in vitro using ELISA.
Materials And Reagents • 1. 15 cm tissue culture dishes • 2. Flk-1/NIH cells: NIH fibroblast line over-expressing human flk-1clone 3 (SUGEN, Inc., obtained from MPI, Martinsried, Germany). • 3. Growth medium: DMEM plus heat inactivated 10% FBS and 2 mM Glutamine (Gibco-BRL). • 4. Starvation medium: DMEM plus 0.5% heat-inactivated FBS, 2 mM Glutamine (Gibco-BRL). • 5. […] L4 or E38 monoclonal antibody specific for flk-1, Purified by Protein-A agarose affinity chromatography (SUGEN, Inc.). • 7. PBS (Dulbecco's Phosphate-Buffered Saline) Gibco Cat. No. 450-1300EB). • 8. HNTG (see BIOCHEMICAL FGFR for preparation). • 9. Pierce BCA protein determination kit. • 10. Blocking buffer • 11. TBST (pH 7.0) • 12. Kinase Buffer • 13. Kinase Stop Solution: 200 mM EDTA. • 14. […] AB kit (Vector Laboratories Cat. No. PK 4000). • 16. DMSO • 17. NUNC 96-well V bottom polypropylene plates (Applied Scientific Cat. No. AS-72092). • 18. Turbo-TMB (Pierce). • 19. Turbo-TMB stop solution: 1 M H2SO4. • 20. ATP (Sigma Cat. No. A-7699). • 21. 20% DMSO in TBS (pH 7.0). Procedure
Cell Growth and Lysate Preparation. • 1. Seed cell into growth medium and grow for 2-3 days to 90-100% confluency at 37° C. and 5% CO2.
2. Remove the medium and wash the cells twice with PBS. Lyse with HNTG lysis buffer. Collect all lysates and vortex mix them for 20-30 seconds. • 3. Remove insoluble material by centrifugation (5-10 min at about 10,000 ×g). • 4. Determine the protein concentration using BCA kit. • 5. Partition lysate into 1 mg aliquots, store at −80° C.
Assay Procedure • 1. Coat Corning 96-well ELISA plates with 2 μg/well purified L4 (or E 38) in 100 μl of PBS. Store overnight at […] • 2. Remove unbound proteins from wells by inverting the plate to remove the liquid. Wash one time with dH2O, pat plate on paper towel to remove excess liquid. • 3. Block plates with 150 μl blocking buffer per well. Incubate for 45-60 minutes with shaking at 4° C. • 4. Remove the blocking buffer and wash the ELISA plate three times with dH2O and one time with TBST. Pat plate on paper towel to remove excess liquid. • 5. Dilute lysate in PBS to give final concentration of 50 μg/100 μl. Add 100 μl of diluted lysate to each well. Incubate with shaking at 4° C. overnight. • 6. Remove unbound proteins from wells by inverting the plate. Wash as in step 4. • 7. Add 80 μl of kinase buffer to wells (90 μl to negative control wells). • 8. Dilute test compounds (normally 10-fold) into wells of a polypropylene plate containing 20% DMSO in TBS. • 9. Add 10 μl of the diluted compounds to the ELISA wells containing immobilized flk-1 and shake. Control wells receive no compounds. • 10. From stock 1 mM ATP, prepare 0.3 mM ATP solution in dH2O (alternatively, kinase buffer may be used). • 11. Add 10 μl of 0.3 mM ATP to all wells except the negative controls. Incubate for 60 min. at room temperature with shaking. • 12. After 1 hr stop the kinase reaction by adding 11 μl 200 mM EDTA. Shake for 1-2 min. • 13. Wash the ELISA plate 4 times with dH2O and twice with TBST. • 14. Add 100 μl of 1:5000 biotinylated 4G10:TBST to all wells. Incubate 45 min with shaking at room temperature. • 15. While the above is incubating, add 50 μl of solutions A & B from the ABC kit to 10 ml of TBST. These solutions must be combined approximately 30 min prior to use. • 16. Wash plates as in step 4. • 17. Add 100 μl of the preformed A & B complex to all wells. Incubate 30 min with shaking at room temperature. • 18. Wash plates as in step 4. • 19. Add 100 μl turbo-TMB. Shake at room temperature for 10-15 min. • 20. When the color in the positive control wells reaches an absorbance of about 0.35-0.4, stop the reaction with 100 μl of turbo-TMB stop solution. • 21. Read plates on Dynatech MR7000 ELISA reader, test filter: 450 nM, reference filter: 410 nM.

[2] = target: T2, flkGST (Homo sapiens, UniProt P35968); experiment: bio flkGST assay; format: biochemical
T2 construct: GST
T2 sequence (P35968 786-1356 limits assumed): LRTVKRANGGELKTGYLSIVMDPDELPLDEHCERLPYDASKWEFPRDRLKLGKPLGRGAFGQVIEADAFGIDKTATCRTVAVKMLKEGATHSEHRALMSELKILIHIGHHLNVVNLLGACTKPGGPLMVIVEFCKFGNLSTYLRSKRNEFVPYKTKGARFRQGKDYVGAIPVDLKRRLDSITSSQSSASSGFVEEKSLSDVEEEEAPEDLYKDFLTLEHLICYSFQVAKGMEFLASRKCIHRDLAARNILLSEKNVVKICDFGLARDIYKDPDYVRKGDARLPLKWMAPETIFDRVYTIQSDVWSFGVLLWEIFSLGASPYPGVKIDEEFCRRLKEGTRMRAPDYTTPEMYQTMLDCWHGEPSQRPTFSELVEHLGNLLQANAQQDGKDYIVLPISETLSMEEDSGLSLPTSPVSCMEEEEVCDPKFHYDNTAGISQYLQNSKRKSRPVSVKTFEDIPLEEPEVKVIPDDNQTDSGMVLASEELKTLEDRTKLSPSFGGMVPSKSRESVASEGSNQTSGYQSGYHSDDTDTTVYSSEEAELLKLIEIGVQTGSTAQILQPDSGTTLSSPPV

[3] = target: Myc-GyrB-FGFR fusion protein (Homo sapiens, UniProt P11362); experiment: Biochemical FGFR assay (ELISA)
Sequence of Myc-GyrB-FGFR fusion protein (P11362 478-767 limits assumed): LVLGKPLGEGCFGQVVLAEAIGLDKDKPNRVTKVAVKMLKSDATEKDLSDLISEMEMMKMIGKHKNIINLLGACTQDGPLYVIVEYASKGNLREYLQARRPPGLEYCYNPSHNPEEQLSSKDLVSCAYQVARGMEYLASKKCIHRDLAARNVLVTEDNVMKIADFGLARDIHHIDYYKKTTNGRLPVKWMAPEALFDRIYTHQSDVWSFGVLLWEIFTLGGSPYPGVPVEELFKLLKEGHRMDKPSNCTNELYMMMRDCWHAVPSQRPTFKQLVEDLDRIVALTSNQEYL

Row | Structure (SMILES) | IC50 [1] | pIC50 [2] | pIC50 ([3]; read-out: bio fgfR1 IC50) | pIC50 ([3]; bio fgfR1 IC50)
1 | CNS(=O)(=O)c1ccc2c(c1)/C(=C/c1cc3ccccc3[nH]1)C(=O)N2 [Example 173, 3-(1H-Indol-2-ylmethylene)-2-oxo-2,3-dihydro-1H-indole-5-sulfonic acid methylamide] | – | 4.96 | 6.54 | –
2 | CCOC(=O)c1c(C)[nH]c(/C=C2\C(=O)Nc3ccc(Br)cc32)c1CCC(=O)O [Compound 114, 5-(5-Bromo-2-oxo-1,2-dihydroindol-3-ylidenemethyl)-4-(2-carboxyethyl)-2-methyl-1H-pyrrole-3-carboxylic acid ethyl ester] | – | 5.48 | 5.37 | –
3 | NS(=O)(=O)c1ccc2c(c1)/C(=C/c1c[nH]c3ccccc13)C(=O)N2 [Example 172, 3-(1H-Indol-3-ylmethylene)-2-oxo-2,3-dihydro-1H-indole-5-sulfonic acid amide] | – | 4.98 | 6.55 | –
4 | Cc1c[nH]c(/C=C2\C(=O)Nc3ccccc32)c1CCC(=O)O [Example 215, 3-[4-Methyl-2-(2-oxo-1,2-dihydroindol-3-ylidenemethyl)-1H-pyrrol-3-yl]-propionic acid] | – | 7.10 | – | 7.15
5 | Cc1cc(CCC(=O)O)c(/C=C2\C(=O)Nc3ccc(Br)cc32)[nH]1 [Compound 116, 3-[2-(5-Bromo-2-oxo-1,2-dihydroindol-3-ylidenemethyl)-5-methyl-1H-pyrrol-3-yl]-propionic acid] | – | 7.00 | 6.54 | –
6 | Cc1c[nH]c(/C=C2\C(=O)Nc3cccc(C)c32)c1CCC(=O)O [Example 218, 3-[2-(4-Methyl-2-oxo-1,2-dihydroindol-3-ylidenemethyl)-4-methyl-1H-pyrrol-3-yl]-propionic acid] | 0.2 µM | 6.32 | – | –
7 | COc1c(C(C)C)cc(/C=C2/C(=O)Nc3ccccc32)cc1C(C)C [Example 1, 3-(3,5-Diisopropyl-4-methoxybenzylidene)-1,3-dihydroindol-2-one] | > 50 µM | – | – | –
8 | COc1c(C(C)C)cc(/C=C2/C(=O)Nc3ccc(Cl)cc32)cc1C(C)C [Example 2, 5-Chloro-3-(3,5-diisopropyl-4-methoxybenzylidene)-1,3-dihydroindol-2-one] | > 50 µM | – | – | –
9 | Cc1c[nH]c(/C=C2\C(=O)Nc3ccc(Br)cc32)c1CCC(=O)O [Example 220, 3-[2-(5-Bromo-2-oxo-1,2-dihydroindol-3-ylidenemethyl)-4-methyl-1H-pyrrol-3-yl]-propionic acid] | 0.35 µM | 6.96 | – | –
10 | Cc1c[nH]c(C=C2C(=O)Nc3cc(Cl)ccc32)c1CCC(=O)O [Example 219, 3-[2-(6-Chloro-2-oxo-1,2-dihydroindol-3-ylidenemethyl)-4-methyl-1H-pyrrol-3-yl]-propionic acid] | 0.19 µM | – | – | –

Further lines, with some results ahead:

Row | IC50 [1] | pIC50 [2] | pIC50 ([3]; read-out: bio fgfR1 IC50) | Structure (SMILES) | pIC50 ([3]; bio fgfR1 IC50)
11 | 0.16 µM | 6.24 | – | CNC(=O)CCc1c(/C=C2\C(=O)Nc3ccccc32)[nH]c2c1CCCC2 [Example 201, N-Methyl-3-[2-(2-oxo-1,2-dihydroindol-3-ylidenemethyl)-4,5,6,7-tetrahydro-1H-indol-3-yl]-propionamide] | –
12 | 2.91 µM | – | – | Cc1c[nH]c(/C=C2\C(=O)Nc3ccc(Cl)cc32)c1CCC(=O)O [Example 216, 3-[2-(5-Chloro-2-oxo-1,2-dihydroindol-3-ylidenemethyl)-4-methyl-1H-pyrrol-3-yl]-propionic acid] | –
13 | – | 4.73 | 5.23 | Cc1[nH]c2ccccc2c1/C=C1\C(=O)Nc2ccc(C(=O)O)cc21 [Example 182, 3-(2-Methyl-1H-indol-3-ylmethylene)-2-oxo-2,3-dihydro-1H-indole-5-carboxylic acid] | –
14 | – | 5.74 | 5.34 | Nc1ccc2c(c1)/C(=C/c1ccc3[nH]ccc3c1)C(=O)N2 [Example 179, 5-Amino-3-(1H-indol-5-ylmethylene)-1,3-dihydro-indol-2-one] | –
15 | 0.63 µM | 5.60 | – | O=C(CCc1c(/C=C2\C(=O)Nc3ccccc32)[nH]c2c1CCCC2)NCCN1CCOCC1 [Example 202, N-(2-Morpholin-4-ylethyl)-3-[2-(2-oxo-1,2-dihydroindol-3-ylidenemethyl)-4,5,6,7-tetrahydro-1H-indol-3-yl]-propionamide] | –
16 | – | < 4.70 | 4.86 | Cc1[nH]c2ccccc2c1/C=C1\C(=O)Nc2ccc(N)cc21 [Example 187, 5-Amino-3-(2-methyl-1H-indol-3-ylmethylene)-1,3-dihydroindol-2-one] | –
17 | 2.1 µM | 6.21 | – | CN(C)C(=O)CCc1c(/C=C2\C(=O)Nc3ccccc32)[nH]c2c1CCCC2 [Example 197, N,N-Dimethyl-3-[2-(2-oxo-1,2-dihydroindol-3-ylidenemethyl)-4,5,6,7-tetrahydro-1H-indol-3-yl]-propionamide] | –
18 | – | 5.87 | 5.80 | O=C1Nc2ccc(C(=O)O)cc2/C1=C/c1ccc2[nH]ccc2c1 [Example 177, 3-(1H-Indol-5-ylmethylene)-2-oxo-2,3-dihydro-1H-indole-5-carboxylic acid] | –
19 | 0.13 µM | 6.77 | – | NC(=O)CCc1c(/C=C2\C(=O)Nc3ccccc32)[nH]c2c1CCCC2 [Example 199, 3-[2-(2-Oxo-1,2-dihydroindol-3-ylidenemethyl)-4,5,6,7-tetrahydro-1H-indol-3-yl]-propionamide] | –
20 | – | 5.95 | 5.27 | Cc1c(/C=C2\C(=O)Nc3ccc(N)cc32)[nH]c2ccccc12 [Example 180, 5-Amino-3-(3-methyl-1H-indol-2-ylmethylene)-1,3-dihydroindol-2-one] | –
21 | – | 5.73 | 6.39 | O=C1Nc2ccc(C(=O)O)cc2/C1=C/c1c[nH]c2ccccc12 [Example 174, 3-(1H-Indol-3-ylmethylene)-2-oxo-2,3-dihydro-1H-indole-5-carboxylic acid] | –
22 | 0.97 µM | 5.89 | – | O=C1Nc2ccccc2/C1=C/c1[nH]c2c(c1CCC(=O)N1CCOCC1)CCCC2 [Example 200, 3-[3-(3-Morpholin-4-yl-3-oxopropyl)-4,5,6,7-tetrahydro-1H-indol-2-ylmethylene]-1,3-dihydroindol-2-one] | –
23 | < 0.78 µM | 6.74 | – | COc1ccc2c(c1)/C(=C/c1[nH]cc(C)c1CCC(=O)O)C(=O)N2 [Example 222, 3-[2-(5-Methoxy-2-oxo-1,2-dihydroindol-3-ylidenemethyl)-4-methyl-1H-pyrrol-3-yl]-propionic acid] | –
24 | 7.44 µM | 5.23 | – | CN(C)CCCc1c(/C=C2\C(=O)Nc3ccccc32)[nH]c2c1CCCC2 [Example 198, 3-[3-(3-Dimethylaminopropyl)-4,5,6,7-tetrahydro-1H-indol-2-ylmethylene]-1,3-dihydroindol-2-one] | –
25 | 1.47 µM | – | – | COc1ccc2c(c1)NC(=O)/C2=C\c1[nH]cc(C)c1CCC(=O)O [Example 217, 3-[2-(6-Methoxy-2-oxo-1,2-dihydroindol-3-ylidenemethyl)-4-methyl-1H-pyrrol-3-yl]-propionic acid] | –
